Data published in patent publication US7235679B2, “Crystals of a vitamin D derivative and a method for the preparation thereof” (Chugai Seiyaku Kabushiki Kaisha, priority 1996, dated 2007).

Assays:
Assay type in all cases: physicochemical
[1] = Stability test of ED-71: purity measurement using reverse phase HPLC; conditions: for Purity Measurement Using Reverse Phase HPLC, ED-71 peak / Purity Measurement Using Reverse Phase HPLC, Other peaks / Purity Measurement Using Reverse Phase HPLC, Pre Form peak: 265 nm
Protocol: (§1) Amorphous and crystalline ED-71 compounds were tested for stability at 10, 25 and […]. To estimate the stability, HPLC quantitative assay and absorbance and purity measurements were utilized. The purity was expressed as peak area ratio in percentage in HPLC (% P.A.R.). The test was carried out by using the following procedures:
(§2) About 2 mg portions of each of the amorphous and crystalline samples are precisely weighed into transparent 10 ml test tubes each having screw cap, individually.
(§3) The test tubes are purged with argon using a vacuum desiccator and a glove box. This purging procedure is not applied to the test tubes indicated as “1 M (air)” in the tables below.
(§4) The test tubes in groups are fixed in thermostatic baths which are respectively controlled at the above temperatures and allowed to stand in the dark. After one (1 W) or two (2 W) weeks or one month (1 M), the test tubes are removed from the baths and subjected to the following assay and measurements:
HPLC is carried out using 25 μl of the sample solution as prepared in “HPLC quantitative assay” above. • HPLC conditions used: • Column: Inertsil ODS-2 (5×250 mm) • Mobile phase: acetonitrile/water mixture (55/45) • Flow rate: 1 ml/min • Detection: at UV 265 and 220 nm.

[2] = Stability test of ED-71: purity measurement using normal phase HPLC; conditions: 265 nm
Protocol: as §1, §2, §3, §4
1 ml of the sample solution as prepared in “HPLC quantitative assay” above is dried in vacuo to remove the solvent (absolute ethanol). The residue is dissolved in 1 ml of methylene chloride. HPLC assay is carried out using 25 μl of this solution. • HPLC conditions used: • Column: YMC A-004SIL (4.6×300 mm) • Mobile phase: methylene chloride/methanol mixture (96/4) • Flow rate: 1.8 ml/min • Detection: at UV 265 nm.

[3] = Stability test of ED-71: absorbance measurement at 265 nm (E 1%); conditions: absorbance at 265 nm
Protocol: as §1, §2, §3, §4
1 ml of the sample solution as prepared in “HPLC quantitative assay” above is diluted with absolute ethanol to give a whole volume of 10 ml and this diluted solution is then measured for the absorbance at 265 nm using a ultraviolet spectrophotometer. The absorbance is converted into E 1% value which is derived from Lambert-Beer Law and the conversion is made according to the following equation: E1%=A/cb wherein A is absorbance, c is concentration in g/100 ml and b is length of optical path in cm across the test solution, which is commonly 1. (4) Purity Measurement

C=C1/C(=C\C=C2/CCC[C@@]3(C)C2CC[C@@H]3[C@H](C)CCCC(C)(C)O)C[C@@H](O)[C@@H](OCCCO)[C@@H]1O (stereo partly drawn) [Amor., 1α,25-dihydroxy-2β-(3-hydroxypropoxy)vitamin D3]
220 nm (%), ED-71 peak ([1]; 10° C., 1 M (air), dark): 92.07%
220 nm (%), Other peaks ([1]; 10° C., 1 M (air), dark): 5.88%
220 nm (%), Pre Form peak ([1]; 10° C., 1 M (air), dark): 2.04%
220 nm (%), ED-71 peak ([1]; 10° C., 1 M, argon, dark): 92.85%
220 nm (%), Other peaks ([1]; 10° C., 1 M, argon, dark): 5.13%
220 nm (%), Pre Form peak ([1]; 10° C., 1 M, argon, dark): 2.02%
220 nm (%), ED-71 peak ([1]; 10° C., 2 W, argon, dark): 92.85%
220 nm (%), Other peaks ([1]; 10° C., 2 W, argon, dark): 5.13%
220 nm (%), Pre Form peak ([1]; 10° C., 2 W, argon, dark): 2.02%
220 nm (%), ED-71 peak ([1]; 10° C., time 0): 93.95%
220 nm (%), Other peaks ([1]; 10° C., time 0): 4.70%
220 nm (%), Pre Form peak ([1]; 10° C., time 0): 1.37%
220 nm (%), ED-71 peak ([1]; 25° C., 1 W, argon, dark): 93.37%
220 nm (%), Other peaks ([1]; 25° C., 1 W, argon, dark): 5.13%
220 nm (%), Pre Form peak ([1]; 25° C., 1 W, argon, dark): 1.50%
220 nm (%), ED-71 peak ([1]; 25° C., 2 W, argon, dark): 92.39%
220 nm (%), Other peaks ([1]; 25° C., 2 W, argon, dark): 5.68%
220 nm (%), Pre Form peak ([1]; 25° C., 2 W, argon, dark): 1.93%
220 nm (%), ED-71 peak ([1]; 25° C., time 0): 93.95%
220 nm (%), Other peaks ([1]; 25° C., time 0): 4.70%
220 nm (%), Pre Form peak ([1]; 25° C., time 0): 1.37%
220 nm (%), ED-71 peak ([1]; 40° C., 1 W, argon, dark): 90.00%
220 nm (%), Other peaks ([1]; 40° C., 1 W, argon, dark): 7.71%
220 nm (%), Pre Form peak ([1]; 40° C., 1 W, argon, dark): 2.29%
220 nm (%), ED-71 peak ([1]; 40° C., 2 W, argon, dark): 87.40%
220 nm (%), Other peaks ([1]; 40° C., 2 W, argon, dark): 9.72%
220 nm (%), Pre Form peak ([1]; 40° C., 2 W, argon, dark): 2.88%
220 nm (%), ED-71 peak ([1]; 40° C., time 0): 93.95%
220 nm (%), Other peaks ([1]; 40° C., time 0): 4.70%
220 nm (%), Pre Form peak ([1]; 40° C., time 0): 1.37%
Purity Measurement Using Reverse Phase HPLC, ED-71 peak ([1]; 10° C., 1 M (air), dark): 94.11 % P.A.R
Purity Measurement Using Reverse Phase HPLC, Other peaks ([1]; 10° C., 1 M (air), dark): 4.07 % P.A.R
Purity Measurement Using Reverse Phase HPLC, Pre Form peak ([1]; 10° C., 1 M (air), dark): 1.82 % P.A.R
Purity Measurement Using Reverse Phase HPLC, ED-71 peak ([1]; 10° C., 1 M, argon, dark): 93.05 % P.A.R
Purity Measurement Using Reverse Phase HPLC, Other peaks ([1]; 10° C., 1 M, argon, dark): 5.07 % P.A.R
Purity Measurement Using Reverse Phase HPLC, Pre Form peak ([1]; 10° C., 1 M, argon, dark): 1.88 % P.A.R
Purity Measurement Using Reverse Phase HPLC, ED-71 peak ([1]; 10° C., 2 W, argon, dark): 94.48 % P.A.R
Purity Measurement Using Reverse Phase HPLC, Other peaks ([1]; 10° C., 2 W, argon, dark): 3.77 % P.A.R
Purity Measurement Using Reverse Phase HPLC, Pre Form peak ([1]; 10° C., 2 W, argon, dark): 1.75 % P.A.R
Purity Measurement Using Reverse Phase HPLC, ED-71 peak ([1]; 10° C., time 0): 95.38 % P.A.R
Purity Measurement Using Reverse Phase HPLC, Other peaks ([1]; 10° C., time 0): 3.47 % P.A.R
Purity Measurement Using Reverse Phase HPLC, Pre Form peak ([1]; 10° C., time 0): 1.16 % P.A.R
Purity Measurement Using Reverse Phase HPLC, ED-71 peak ([1]; 25° C., 1 W, argon, dark): 94.78 % P.A.R
Purity Measurement Using Reverse Phase HPLC, Other peaks ([1]; 25° C., 1 W, argon, dark): 3.95 % P.A.R
Purity Measurement Using Reverse Phase HPLC, Pre Form peak ([1]; 25° C., 1 W, argon, dark): 1.27 % P.A.R
Purity Measurement Using Reverse Phase HPLC, ED-71 peak ([1]; 25° C., 2 W, argon, dark): 94.20 % P.A.R
Purity Measurement Using Reverse Phase HPLC, Other peaks ([1]; 25° C., 2 W, argon, dark): 4.08 % P.A.R
Purity Measurement Using Reverse Phase HPLC, Pre Form peak ([1]; 25° C., 2 W, argon, dark): 1.72 % P.A.R
Purity Measurement Using Reverse Phase HPLC, ED-71 peak ([1]; 25° C., time 0): 95.38 % P.A.R
Purity Measurement Using Reverse Phase HPLC, Other peaks ([1]; 25° C., time 0): 3.47 % P.A.R
Purity Measurement Using Reverse Phase HPLC, Pre Form peak ([1]; 25° C., time 0): 1.16 % P.A.R
Purity Measurement Using Reverse Phase HPLC, ED-71 peak ([1]; 40° C., 1 W, argon, dark): 92.47 % P.A.R
Purity Measurement Using Reverse Phase HPLC, Other peaks ([1]; 40° C., 1 W, argon, dark): 5.55 % P.A.R
Purity Measurement Using Reverse Phase HPLC, Pre Form peak ([1]; 40° C., 1 W, argon, dark): 1.98 % P.A.R
Purity Measurement Using Reverse Phase HPLC, ED-71 peak ([1]; 40° C., 2 W, argon, dark): 90.68 % P.A.R
Purity Measurement Using Reverse Phase HPLC, Other peaks ([1]; 40° C., 2 W, argon, dark): 6.78 % P.A.R
Purity Measurement Using Reverse Phase HPLC, Pre Form peak ([1]; 40° C., 2 W, argon, dark): 2.53 % P.A.R
Purity Measurement Using Reverse Phase HPLC, ED-71 peak ([1]; 40° C., time 0): 95.38 % P.A.R
Purity Measurement Using Reverse Phase HPLC, Other peaks ([1]; 40° C., time 0): 3.47 % P.A.R
Purity Measurement Using Reverse Phase HPLC, Pre Form peak ([1]; 40° C., time 0): 1.16 % P.A.R
Purity Measurement Using Normal Phase HPLC, ED-71 peak ([2]; 10° C., 1 M (air), dark): 95.26 % P.A.R
Purity Measurement Using Normal Phase HPLC, Other peaks ([2]; 10° C., 1 M (air), dark): 2.42 % P.A.R
Purity Measurement Using Normal Phase HPLC, Pre Form peak ([2]; 10° C., 1 M (air), dark): 2.31 % P.A.R
Purity Measurement Using Normal Phase HPLC, ED-71 peak ([2]; 10° C., 1 M, argon, dark): 94.58 % P.A.R
Purity Measurement Using Normal Phase HPLC, Other peaks ([2]; 10° C., 1 M, argon, dark): 3.09 % P.A.R
Purity Measurement Using Normal Phase HPLC, Pre Form peak ([2]; 10° C., 1 M, argon, dark): 2.33 % P.A.R
Purity Measurement Using Normal Phase HPLC, ED-71 peak ([2]; 10° C., 2 W, argon, dark): 95.46 % P.A.R
Purity Measurement Using Normal Phase HPLC, Other peaks ([2]; 10° C., 2 W, argon, dark): 2.28 % P.A.R
Purity Measurement Using Normal Phase HPLC, Pre Form peak ([2]; 10° C., 2 W, argon, dark): 2.27 % P.A.R
Purity Measurement Using Normal Phase HPLC, ED-71 peak ([2]; 10° C., time 0): 96.06 % P.A.R
Purity Measurement Using Normal Phase HPLC, Other peaks ([2]; 10° C., time 0): 2.27 % P.A.R
Purity Measurement Using Normal Phase HPLC, Pre Form peak ([2]; 10° C., time 0): 1.67 % P.A.R
Purity Measurement Using Normal Phase HPLC, ED-71 peak ([2]; 25° C., 1 W, argon, dark): 95.97 % P.A.R
Purity Measurement Using Normal Phase HPLC, Other peaks ([2]; 25° C., 1 W, argon, dark): 2.14 % P.A.R
Purity Measurement Using Normal Phase HPLC, Pre Form peak ([2]; 25° C., 1 W, argon, dark): 1.88 % P.A.R
Purity Measurement Using Normal Phase HPLC, ED-71 peak ([2]; 25° C., 2 W, argon, dark): 94.74 % P.A.R
Purity Measurement Using Normal Phase HPLC, Other peaks ([2]; 25° C., 2 W, argon, dark): 3.01 % P.A.R
Purity Measurement Using Normal Phase HPLC, Pre Form peak ([2]; 25° C., 2 W, argon, dark): 2.25 % P.A.R
Purity Measurement Using Normal Phase HPLC, ED-71 peak ([2]; 25° C., time 0): 96.06 % P.A.R
Purity Measurement Using Normal Phase HPLC, Other peaks ([2]; 25° C., time 0): 2.27 % P.A.R
Purity Measurement Using Normal Phase HPLC, Pre Form peak ([2]; 25° C., time 0): 1.67 % P.A.R
Purity Measurement Using Normal Phase HPLC, ED-71 peak ([2]; 40° C., 1 W, argon, dark): 94.47 % P.A.R
Purity Measurement Using Normal Phase HPLC, Other peaks ([2]; 40° C., 1 W, argon, dark): 3.00 % P.A.R
Purity Measurement Using Normal Phase HPLC, Pre Form peak ([2]; 40° C., 1 W, argon, dark): 2.53 % P.A.R
Purity Measurement Using Normal Phase HPLC, ED-71 peak ([2]; 40° C., 2 W, argon, dark): 92.12 % P.A.R
Purity Measurement Using Normal Phase HPLC, Other peaks ([2]; 40° C., 2 W, argon, dark): 4.89 % P.A.R
Purity Measurement Using Normal Phase HPLC, Pre Form peak ([2]; 40° C., 2 W, argon, dark): 2.99 % P.A.R
Purity Measurement Using Normal Phase HPLC, ED-71 peak ([2]; 40° C., time 0): 96.06 % P.A.R
Purity Measurement Using Normal Phase HPLC, Other peaks ([2]; 40° C., time 0): 2.27 % P.A.R
Purity Measurement Using Normal Phase HPLC, Pre Form peak ([2]; 40° C., time 0): 1.67 % P.A.R
E 1% ([3]; 10° C., 1 M (air), dark): 316.3
E 1% ([3]; 10° C., 1 M, argon, dark): 320.5
E 1% ([3]; 10° C., 2 W, argon, dark): 324.9
E 1% ([3]; 10° C., time 0): 327.5
E 1% ([3]; 25° C., 1 W, argon, dark): 323.0
E 1% ([3]; 25° C., 2 W, argon, dark): 316.9
E 1% ([3]; 25° C., time 0): 327.5
E 1% ([3]; 40° C., 1 W, argon, dark): 313.2
E 1% ([3]; 40° C., 2 W, argon, dark): 304.0
E 1% ([3]; 40° C., time 0): 327.5
